# Key:
# [1] = Solubility study in aqueous media at 37° C. (HPLC of supernatants, pH); settings: for solubility / solubility at 2 h / solubility at 24 h: 37 °C, thermodynamic from solid
# Description: 2.01 mg of the free base Form C (equal to 2 mg free base after correction for water content) was weighed into 2 mL vial. 2.09 mg of the free base Form F (equal to 2 mg free base after correction for water content) was weighed into a 2 mL vial. I mL of aqueous media was added, respectively. These suspensions were stirred at 37° C. at a rate of 400 rpm. These suspensions were taken out after 2 h and 24 h, and then centrifuged at 14,000 rpm for 5 minutes. The supernatants were analyzed by HPLC. The pH of the supernatants were tested.
# [2] = Bulk stability under accelerated storage conditions (XRPD and HPLC); settings: for Bulk (XRPD) / Purity, Bulk (HPLC): Solid state
# Description: Solids obtained after bulk stability study were characterized by XRPD and HPLC.
# [3] = Hygroscopicity by DVS at 25° C.; assay type: physicochemical; settings: for Desorp. (%) / Sorp. (%): DVS 25° C.
# Description: Dynamic Vapor Sorption (DVS): DVS analysis was performed using Intrinsic. Analysis was performed using parameters as set forth below.
# The hygroscopicity for Form C and Form F was examined. See, e.g., Table E.
# [4] = SGF, pH 2, simulated gastric fluid
# [5] = pH 1.0 HCl solution (0.1N), pH 1, simulated gastric fluid
# [6] = pH 4.5 acetate buffer (50 mM), pH 4.5, aqueous buffer
# [7] = pH 6.8 phosphate buffer (50 mM), pH 6.8, aqueous buffer
# [8] = 25° C./92.5% RH in an open vial, 2 weeks
# [9] = 25° C./92.5% RH in an open vial, 4 weeks
# [10] = 40° C./75% RH in an open vial, 2 weeks
# [11] = 40° C./75% RH in an open vial, 4 week
# [12] = 60° C., tight container, 2 weeks
# [13] = 60° C., tight container, 4 weeks
smiles,measurement,setting,value
CN1C[C@H]2C[C@@]2(C#Cc2cc3ncnc(Nc4cccc(Cl)c4F)c3cc2NC(=O)/C=C/CN2CCOCC2)C1 [Form C],stability in FaSSIF-v1,"[1]; 37° C., FaSSIF-v1",degraded
same,stability in FeSSIF-v1,"[1]; 37° C., FeSSIF-v1",degraded
same,2 h Solubility,"[1]; FaSSIF-v1, pH 6.5, 37° C.",Degradation
same,24 h Solubility,"[1]; FaSSIF-v1, pH 6.5, 37° C.",Degradation
same,2 h Solubility,"[1]; FeSSIF-v1, pH 5.0, 37° C.",Degradation
same,24 h Solubility,"[1]; FeSSIF-v1, pH 5.0, 37° C.",Degradation
same,solubility,[1]; [4],> 2000 µg/mL
same,solubility at 2 h,[1]; [4],> 2000 µg/mL
same,solubility at 24 h,[1]; [4],> 2000 µg/mL
same,24 h (pH) of supernatant,"[1]; SGF, pH 2.0, 37° C.",pH 3.7
same,24 h (pH) of supernatant,"[1]; Water, 37° C.",pH 7.4
same,24 h (pH) of supernatant,"[1]; pH 1.0 (0.1N HCl), 37° C.",pH 1.0
same,solubility at 2 h,[1]; [5],> 2000 µg/mL
same,solubility at 24 h,[1]; [5],> 2000 µg/mL
same,solubility,"[1]; pH 1.0 HCl solution, pH 1, simulated gastric fluid",> 2000 µg/mL
same,24 h (pH) of supernatant,"[1]; pH 4.5 (50 mM) acetate buffer, 37° C.",pH 4.5
same,solubility,[1]; [6],> 2000 µg/mL
same,solubility at 2 h,[1]; [6],2000 µg/mL
same,solubility at 24 h,[1]; [6],> 2000 µg/mL
same,24 h (pH) of supernatant,"[1]; pH 6.8 (50 mM) phosphate buffer, 37° C.",pH 6.7
same,solubility,[1]; [7],~20 µg/mL
same,solubility at 2 h,[1]; [7],20.4 µg/mL
same,solubility at 24 h,[1]; [7],16.5 µg/mL
same,solubility,"[1]; pure water, water",< 10 µg/mL
same,solubility at 2 h,[1]; water,1.6 µg/mL
same,solubility at 24 h,[1]; water,2 µg/mL
same,HPLC area Purity,"[2]; 1 Month, 5° C.",98.2%
same,Water content,"[2]; 1 Month, 5° C.",0.5%
same,impurity RRT0.967,"[2]; 1 Month, 5° C.",0.07%
same,impurity RRT0.971,"[2]; 1 Month, 5° C.",0.08%
same,impurity RRT1.20,"[2]; 1 Month, 5° C.",0.06%
same,impurity RRT1.24,"[2]; 1 Month, 5° C.",1.4%
same,impurity RRT1.26,"[2]; 1 Month, 5° C.",0.13%
same,impurity RRT1.28,"[2]; 1 Month, 5° C.",0.11%
same,HPLC area Purity,"[2]; 1 Month, 25° C./60% RH",98.2
same,Water content,"[2]; 1 Month, 25° C./60% RH",0.4%
same,impurity RRT0.967,"[2]; 1 Month, 25° C./60% RH",0.07%
same,impurity RRT0.971,"[2]; 1 Month, 25° C./60% RH",0.08%
same,impurity RRT1.20,"[2]; 1 Month, 25° C./60% RH",0.06%
same,impurity RRT1.24,"[2]; 1 Month, 25° C./60% RH",1.4%
same,impurity RRT1.26,"[2]; 1 Month, 25° C./60% RH",0.13%
same,impurity RRT1.28,"[2]; 1 Month, 25° C./60% RH",0.11%
same,HPLC area Purity,"[2]; 1 Month, 40° C./75% RH",98.2%
same,Water content,"[2]; 1 Month, 40° C./75% RH",0.7%
same,impurity RRT0.967,"[2]; 1 Month, 40° C./75% RH",0.08%
same,impurity RRT0.971,"[2]; 1 Month, 40° C./75% RH",0.08%
same,impurity RRT1.20,"[2]; 1 Month, 40° C./75% RH","0,07%"
same,impurity RRT1.24,"[2]; 1 Month, 40° C./75% RH",1.4%
same,impurity RRT1.26,"[2]; 1 Month, 40° C./75% RH",0.13%
same,impurity RRT1.28,"[2]; 1 Month, 40° C./75% RH",0.11%
same,HPLC area Purity,[2]; Initial,98.1
same,Water content,[2]; Initial,0.4%
same,impurity RRT0.967,[2]; Initial,0.09%
same,impurity RRT0.971,[2]; Initial,0.06%
same,impurity RRT1.20,[2]; Initial,0.06%
same,impurity RRT1.24,[2]; Initial,1.4%
same,impurity RRT1.26,[2]; Initial,0.13%
same,impurity RRT1.28,[2]; Initial,0.12%
same,impurity RrRT1.12,[2]; Initial,0.05%
same,polymorph,[2]; Initial,Form C
same,Bulk (XRPD),[2]; [8],No form change
same,"Purity, Bulk (HPLC)",[2]; [8],96.6%
same,Bulk (XRPD),[2]; [9],No form change
same,"Purity, Bulk (HPLC)",[2]; [9],96.4%
same,Bulk (XRPD),[2]; [10],No form change
same,"Purity, Bulk (HPLC)",[2]; [10],95.5%
same,Bulk (XRPD),[2]; [11],No form change
same,"Purity, Bulk (HPLC)",[2]; [11],94.6%
same,Bulk (XRPD),[2]; [12],No form change
same,"Purity, Bulk (HPLC)",[2]; [12],95.5%
same,Bulk (XRPD),[2]; [13],No form change
same,"Purity, Bulk (HPLC)",[2]; [13],93.3%
same,form change after bulk stability study (XRPD),"[2]; three accelerated conditions, two weeks and four weeks",do not change forms
same,DVS water uptake at 90% RH,"[3]; 25° C., dm/dt = 0.002%",1.6% water uptake at 90% RH
same,DVS water uptake at 95% RH,"[3]; 25° C., dm/dt = 0.002%",2.3% water uptake at 95% RH
same,Desorp. (%),"[3]; Relative Humidity 0%, first Desorp.",0.2%
same,Sorp. (%),"[3]; Relative Humidity 0%, first Sorp.",0.2%
same,Desorp. (%),"[3]; Relative Humidity 0%, second Desorp.",0.0%
same,Sorp. (%),"[3]; Relative Humidity 0%, second Sorp.",0.0%
same,Desorp. (%),"[3]; Relative Humidity 10%, first Desorp.",0.3%
same,Sorp. (%),"[3]; Relative Humidity 10%, first Sorp.",0.2%
same,Desorp. (%),"[3]; Relative Humidity 10%, second Desorp.",0.1%
same,Sorp. (%),"[3]; Relative Humidity 10%, second Sorp.",0.1%
same,Desorp. (%),"[3]; Relative Humidity 20%, first Desorp.",0.4%
same,Sorp. (%),"[3]; Relative Humidity 20%, first Sorp.",0.3%
same,Desorp. (%),"[3]; Relative Humidity 20%, second Desorp.",0.2%
same,Sorp. (%),"[3]; Relative Humidity 20%, second Sorp.",0.2%
same,Desorp. (%),"[3]; Relative Humidity 30%, first Desorp.",0.5%
same,Sorp. (%),"[3]; Relative Humidity 30%, first Sorp.",0.4%
same,Desorp. (%),"[3]; Relative Humidity 30%, second Desorp.",0.3%
same,Sorp. (%),"[3]; Relative Humidity 30%, second Sorp.",0.3%
same,Desorp. (%),"[3]; Relative Humidity 40%, first Desorp.",0.5%
same,Sorp. (%),"[3]; Relative Humidity 40%, first Sorp.",0.4%
same,Desorp. (%),"[3]; Relative Humidity 40%, second Desorp.",0.4%
same,Sorp. (%),"[3]; Relative Humidity 40%, second Sorp.",0.3%
same,Sorp. (%),"[3]; Relative Humidity 50%, first Sorp.",0.5%
same,Desorp. (%),"[3]; Relative Humidity 50%, second Desorp.",0.6%
same,Sorp. (%),"[3]; Relative Humidity 60%, first Sorp.",0.6%
same,Desorp. (%),"[3]; Relative Humidity 60%, second Desorp.",1.1%
same,Sorp. (%),"[3]; Relative Humidity 70%, first Sorp.",0.8%
same,Desorp. (%),"[3]; Relative Humidity 70%, second Desorp.",1.4%
same,Sorp. (%),"[3]; Relative Humidity 80%, first Sorp.",1.2%
same,Desorp. (%),"[3]; Relative Humidity 80%, second Desorp.",1.7%
same,Sorp. (%),"[3]; Relative Humidity 90%, first Sorp.",1.8%
same,Desorp. (%),"[3]; Relative Humidity 90%, second Desorp.",2.2%
same,Sorp. (%),"[3]; Relative Humidity 95%, first Sorp.",2.5%
same,Desorp. (%),"[3]; Relative Humidity 95%, second Desorp.",2.5%
same,XRPD after DVS test,[3]; DVS at 25° C.,No form change

# From patent US20240425492A1, “POLYMORPHS AS ERBB INHIBITORS” (Black Diamond Therapeutics, Inc., priority 2021, published 2024)
